# Patent US20220241308A1, “NEURONAL FUNCTION MODULATING AGENT” (University of Tsukuba, priority 2019, published 2022)
# How the values were obtained:
# [1] = tested on: MAP2K4 (mitogen-activated protein kinase 4); assay: Gene expression experiment (real-time PCR) in SH-SY5Y cells: MAP2K4; format: cell-based; details: for expression of MAP2K4: 24 h
# Protocol: SH-SY5Y cells were seeded in 100 mm-cell dishes (BD Biocoat) at concentrations of 3.7×10^5 cells/mL (10 mL/dish) and cultured for 24 h at 37° C. and 5% CO2. Culture medium used was F12/DMEM (Gibco) supplemented with 1% non-essential amino acids (Gibco), 15% FBS (Bio West), and 1% penicillin/streptomycin (Lonza). After 24 h, the culture medium was completely removed with an aspirator, 10 mL of culture medium Opti-MEM(Gibco) was added to each dish, and the cells were cultured for 24 h at 37° C. and 5% CO2. RNA was extracted from the culture cells and analyzed for the expression of genes described below by real-time PCR (designated as “Control” in FIGS. 2 to 8).
# RNA extraction was performed using ISOGEN Reagent (Nippon Gene Co., Ltd.) in accordance with the protocol recommended by Nippo n Gene Co., Ltd. (see URL: https://www.nippongene.com/siyaku/product/extraction/tds/tds_isogen-rna-dna-protein.pdf). Real-time PCR was performed according to the protocol recommended by Thermo Fisher Scientific using a reagent kit for TaqMan Real-Time PCR (Thermo Fisher Scientific) (see URL: https://assets.thermofisher.com/TFS-Assets/LSG/manuals/4304449_TaqManPCRMM_UG.pdf).
# 24 h after seeding 100 mm-cell dishes (BD Biocoat) with SH-SY5Y cells, the culture medium was completely removed with an aspirator, amyloid β protein (Beta-Amyloid 1-42, AnaSpec) was mixed with Opti-MEM (Gibco) so that the final concentration was 5 μM, 10 mL of the mixture was added to each dish, the cells were cultured for 24 h at 37° C. and 5% CO2, and RNA was extracted. Except for performing the procedure described above, gene expression was analyzed as described above (designated as “Aβ” in FIGS. 2 to 8).
# 24 h after seeding 100 mm-cell dishes (BD Biocoat) with SH-SY5Y cells, the culture medium was completely removed with an aspirator, Sample 1 was mixed with culture medium Opti-MEM(Gibco) so that the final concentration was 12.56 μM, 9,990 μL of the mixture was added to each dish and allowed to stand for 10 min, amyloid β protein (Beta-Amyloid 1-42, AnaSpec) was mixed with Opti-MEM (Gibco) so that the final concentration was […], 10 μL of the mixture was added to each well, the cells were cultured for 24 h at 37° C. and 5% CO2, and RNA was extracted. Except for performing the procedure described above, Gene expression was analyzed as described above (designated as “Aβ+M3,5G” in FIGS. 2 to 8).
# Except that Sample 2 was used instead of Sample 1, gene expression was analyzed as described above (designated as “Aβ+M” in FIGS. 2 to 8).
# Except that Sample 3 was used instead of Sample 1, gene expression was analyzed as described above (designated as “Aβ+M3G” in FIGS. 2 to 8).
# 24 h after seeding 100 mm-cell dishes (BD Biocoat) with SH-SY5Y cells, the culture medium was completely removed with an aspirator, 10 mL of culture medium Opti-MEM(Gibco) mixed with Sample 1 was added to each dish, the cells were cultured for 24 h at 37° C. and 5% CO2, and RNA was extracted. Except for performing the procedure described above, gene expression was analyzed as described above (designated as “M3,5G” in FIGS. 2 to 8).
# [2] = tested on: SH-SY5Y cells; assay: Reactive oxygen species measurement experiment (OxiSelect Intracellular ROS assay kit); format: cell-based; details: 12.56 μM with amyloid β protein 5 μM, 1 h
# Protocol: Specifically, OxiSelect™ Intracellular ROS assay kit (Cell Biolabs Ink) was used to measure the reactive oxygen species level according to protocol recommended by Cell Biolabs Ink (URL: https://www.cellbiolabs.com/sites/default/files/STA-342-ROS-assay-kit.pdf)) of Cell Biolabs Ink Co., Ltd. (designated as “Control” in FIG. 10).
# Each well of a 96-well plate (BD Biocoat) was seeded with SH-SY5Y cells (ATCC, model of neuronal cells) at a concentration of 2×10^5 cells/mL (100 μL/well) and the cells cultured at 37° C. and 5% CO2 for 24 h. Culture medium used was F12/DMEM (Gibco) supplemented with 1% non-essential amino acids (Gibco), 15% FBS (Bio West), and 1% penicillin/streptomycin (Lonza).
# After 24 h, the culture medium was completely removed with an aspirator, 20×DCFH-DA (reagent included in the assay kit) was mixed with culture medium Opti-MEM (Gibco) (reagent was diluted 20 times), 100 μL of the mixture was added to each well, and the cells were cultured at 37° C. and 5% CO2 for 1 h. The culture medium Opti-MEM with 20×DCFH-DA was then completely removed with an aspirator, […] of fresh Opti-MEM (Gibco) was added to each well, and the cells were cultured at 37° C. and 5% CO2 for 1 h. […] Fluorescence at 480 nm/530 nm was measured on a microplate reader (Sumitomo Dainippon Pharma) to find the relative ROS production (designated as “Control” in FIG. 10). […]
structure (smiles),measurement,setting,value
"COc1cc(-c2[o+]c3cc(O)cc(OC4OC(CO)C(O)C(O)C4O)c3cc2OC2OC(CO)C(O)C(O)C2O)cc(OC)c1O (stereo not drawn) [M3,5G, Malvidin-3,5-diglucoside chloride]",expression of MAP2K4,"[1]; 12.56 μM, amyloid β protein-treated cells, compared to “Aβ”",significantly high
same,expression of MAP2K4,"[1]; 12.56 μM, amyloid β protein-treated cells, compared to “Control”",significantly high
same,expression of MAP2K4,"[1]; Sample 1 alone, no amyloid β, compared to “Control”",significantly increased
same,activity in increasing the expression of MAP2K4,"[1]; amyloid β protein-treated cells, 12.56 μM, ranked against malvidin and malvidin-3-glucoside",highest activity
same,ROS production,[2]; compared to “Aβ”,significant reductions
same,ROS production,[2]; compared to “Control”,no significance
